Source: patent US20050070460A1 (priority 2003, published 2005)

Experiments:
[1] = tested on: Influenza A/New Calcdonia/20/99 (H1N1)
[2] = tested on: Influenza A/Panama/2007/99 (H3N2)
in vitro [3] = conditions: dog
MDCK cells = conditions: Influenza A (H1N1) test
[4] = tested on: Influenza A/Panama/2007/99 (H3N2); test: microbe, parasite or virus in culture; conditions: H3N2, MDCK
[5] = tested on: Influenza A/New Calcdonia/20/99 (H1N1); test: microbe, parasite or virus in culture; conditions: H1N1, MDCK
[6] = tested on: Human coronavirus (HcoV), strain OC43; test: microbe, parasite or virus in culture; conditions: unidentified human coronavirus, OC43, BSC-1
[7] = tested on: humanized, non-lethal influenza virus; test: Viral titers in rats after intranasal pre-infection treatment and influenza challenge; format: in vivo, Fisher 344 rats; conditions: intranasal administration prior to infection, 24 hours after the infection, compared also to IFN-α pretreatment
[8] = tested on: Human coronavirus (HcoV), strain OC43
[9] = tested on: Severe acute respiratory syndrome (SARS) coronavirus, strain Urbani
[10] = tested on: Severe acute respiratory syndrome (SARS) coronavirus, strain Urbani; test: microbe, parasite or virus in culture; conditions: Severe acute respiratory syndrome-related coronavirus, Vero 76, SARS, Vero 76 cells; PBMC supernatant = indirect, IRM in media = direct
in vitro [11] = conditions: African green monkey

Row | Compound | SI (CC50/EC50) [1] | SI (CC50/EC50) [2] | CC50 (in vitro [3]) [µM] | CC50 (MDCK cells) [µM] | EC50 [4] [µM] | EC50 [5] [µM] | EC50 [6] [µM] | viral titer present in the lung [7] | viral titer present in the nasal cavity [7] | SI (CC50/EC50) [8] | SI (CC50/EC50) [9] | antiviral activity (in words) [9] | EC50 [10] [µM] | CC50 (in vitro [11]) [µM]
1 | NC(=O)c1ncn([C@@H]2O[C@H](CO)[C@@H](O)[C@H]2O)n1 [Ribavirin, ribavirin, reference compound] | >32 | >19 | > 450 | > 450 | 24 | 14 |  |  |  |  |  |  |  | 
2 | CCOCc1nc2c(N)nc3ccccc3c2n1CC(C)(C)NS(C)(=O)=O [IRM, N-{2-[4-amino-2-(ethoxymethyl)-1H-imidazo[4,5-c]quinolin-1-yl]-1,1-dimethylethyl}methanesulfonamide] | 0 | 0 | > 300 | > 300 | > 300 | > 300 | > 150 | dramatically reduced | dramatically reduced | 0 | 50 | significant direct activity | ~3 | > 150
